# Laboratory results published in PubChem BioAssay AID328 (DTP/NCI, 2004).
# Values joined by “and” are separate entries in the source; they are usually repeats but may differ in a detail not shown here. Identical values can stand only once. Inconclusive results and toxic doses are left out.
# Test system: BDF1 mice, P388 leukemia ip, median survival T/C
# Experiment: NCI In Vivo Anticancer Drug Screen. Data for tumor model P388 Leukemia (intraperitoneal) in B6D2F1 (BDF1) mice
# Details: endpoint: median survival time, higher = longer survival
# Method in brief: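 Vehicle-dosed animals serve as the reference; survival of compound-dosed, tumour-implanted mice is divided by it.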
# [1] = dose: 100.0 mg/kg/injection, schedule: Q04DX003 (ip), vehicle: Klucel (hydroxypropylcellulose) (HPC)
# [2] = dose: 200.0 mg/kg/injection, schedule: Q04DX003 (ip), vehicle: Klucel (hydroxypropylcellulose) (HPC)
# [3] = dose: 400.0 mg/kg/injection, schedule: Q01DX009 (ip), vehicle: Klucel (hydroxypropylcellulose) (HPC)
# [4] = dose: 400.0 mg/kg/injection, schedule: Q04DX003 (ip), vehicle: Klucel (hydroxypropylcellulose) (HPC)
# [5] = dose: 100.0 mg/kg/injection, schedule: Q04DX003 (ip), vehicle: saline with Tween-80
# [6] = dose: 50.0 mg/kg/injection, schedule: Q01DX009 (ip), vehicle: saline with Tween-80
# [7] = dose: 100.0 mg/kg/injection, schedule: Q01DX009 (ip), vehicle: saline with Tween-80
# [8] = dose: 200.0 mg/kg/injection, schedule: Q01DX009 (ip), vehicle: saline with Tween-80
# [9] = dose: 25.0 mg/kg/injection, schedule: Q04DX003 (ip), vehicle: saline
# [10] = dose: 50.0 mg/kg/injection, schedule: Q04DX003 (ip), vehicle: saline
# [11] = dose: 100.0 mg/kg/injection, schedule: Q04DX003 (ip), vehicle: saline
smiles,measurement,setting,value
O=NN(CCCl)C(=O)Nc1ccc(NC(=O)N(CCCl)N=O)cc1,T/C,"dose: 0.03 mg/kg/injection, schedule: Q04DX003 (ip), vehicle: Klucel (hydroxypropylcellulose) (HPC)",100 % of control
same,T/C,"dose: 0.06 mg/kg/injection, schedule: Q04DX003 (ip), vehicle: Klucel (hydroxypropylcellulose) (HPC)",108 % of control
same,T/C,"dose: 0.12 mg/kg/injection, schedule: Q01DX009 (ip), vehicle: Klucel (hydroxypropylcellulose) (HPC)",111 % of control
same,T/C,"dose: 0.12 mg/kg/injection, schedule: Q04DX003 (ip), vehicle: Klucel (hydroxypropylcellulose) (HPC)",108 % of control
same,T/C,"dose: 0.25 mg/kg/injection, schedule: Q01DX009 (ip), vehicle: Klucel (hydroxypropylcellulose) (HPC)",177 % of control
same,T/C,"dose: 0.25 mg/kg/injection, schedule: Q04DX003 (ip), vehicle: Klucel (hydroxypropylcellulose) (HPC)",150 % of control
same,T/C,"dose: 0.5 mg/kg/injection, schedule: Q01DX009 (ip), vehicle: Klucel (hydroxypropylcellulose) (HPC)",222 % of control
same,T/C,"dose: 0.5 mg/kg/injection, schedule: Q04DX003 (ip), vehicle: Klucel (hydroxypropylcellulose) (HPC)",154 % of control
same,T/C,"dose: 0.6 mg/kg/injection, schedule: Q04DX003 (ip), vehicle: Klucel (hydroxypropylcellulose) (HPC)",117 % of control
same,T/C,"dose: 1.0 mg/kg/injection, schedule: Q01DX009 (ip), vehicle: Klucel (hydroxypropylcellulose) (HPC)",94 % of control
same,T/C,"dose: 1.0 mg/kg/injection, schedule: Q04DX003 (ip), vehicle: Klucel (hydroxypropylcellulose) (HPC)",204 % of control
same,T/C,"dose: 1.5 mg/kg/injection, schedule: Q01DX009 (ip), vehicle: Klucel (hydroxypropylcellulose) (HPC)",254 % of control
same,T/C,"dose: 1.6 mg/kg/injection, schedule: Q04DX003 (ip), vehicle: Klucel (hydroxypropylcellulose) (HPC)",152 % of control
same,T/C,"dose: 2.0 mg/kg/injection, schedule: Q04DX003 (ip), vehicle: Klucel (hydroxypropylcellulose) (HPC)",186 % of control
same,T/C,"dose: 2.5 mg/kg/injection, schedule: Q04DX003 (ip), vehicle: Klucel (hydroxypropylcellulose) (HPC)",160 % of control and 175 % of control
same,T/C,"dose: 3.0 mg/kg/injection, schedule: Q01DX009 (ip), vehicle: Klucel (hydroxypropylcellulose) (HPC)",231 % of control
same,T/C,"dose: 3.0 mg/kg/injection, schedule: Q04DX003 (ip), vehicle: Klucel (hydroxypropylcellulose) (HPC)",186 % of control
same,T/C,"dose: 4.0 mg/kg/injection, schedule: Q04DX003 (ip), vehicle: Klucel (hydroxypropylcellulose) (HPC)",187 % of control
same,T/C,"dose: 6.0 mg/kg/injection, schedule: Q01DX009 (ip), vehicle: Klucel (hydroxypropylcellulose) (HPC)",272 % of control
same,T/C,"dose: 6.0 mg/kg/injection, schedule: Q04DX003 (ip), vehicle: Klucel (hydroxypropylcellulose) (HPC)",227 % of control and 187 % of control and 213 % of control
same,T/C,"dose: 9.0 mg/kg/injection, schedule: Q04DX003 (ip), vehicle: Klucel (hydroxypropylcellulose) (HPC)",190 % of control
same,T/C,"dose: 12.0 mg/kg/injection, schedule: Q04DX003 (ip), vehicle: Klucel (hydroxypropylcellulose) (HPC)",213 % of control
same,T/C,"dose: 12.5 mg/kg/injection, schedule: Q01DX009 (ip), vehicle: Klucel (hydroxypropylcellulose) (HPC)",300 % of control
same,T/C,"dose: 13.0 mg/kg/injection, schedule: Q04DX003 (ip), vehicle: Klucel (hydroxypropylcellulose) (HPC)",231 % of control and 259 % of control
same,T/C,"dose: 20.0 mg/kg/injection, schedule: Q04DX003 (ip), vehicle: Klucel (hydroxypropylcellulose) (HPC)",245 % of control
same,T/C,"dose: 25.0 mg/kg/injection, schedule: Q01DX009 (ip), vehicle: Klucel (hydroxypropylcellulose) (HPC)",300 % of control
same,T/C,"dose: 25.0 mg/kg/injection, schedule: Q04DX003 (ip), vehicle: Klucel (hydroxypropylcellulose) (HPC)",272 % of control
same,T/C,"dose: 30.0 mg/kg/injection, schedule: Q04DX003 (ip), vehicle: Klucel (hydroxypropylcellulose) (HPC)",250 % of control and 272 % of control
same,T/C,"dose: 44.0 mg/kg/injection, schedule: Q04DX003 (ip), vehicle: Klucel (hydroxypropylcellulose) (HPC)",250 % of control
same,T/C,"dose: 50.0 mg/kg/injection, schedule: Q01DX009 (ip), vehicle: Klucel (hydroxypropylcellulose) (HPC)",210 % of control
same,T/C,"dose: 50.0 mg/kg/injection, schedule: Q04DX003 (ip), vehicle: Klucel (hydroxypropylcellulose) (HPC)",254 % of control
same,T/C,"dose: 66.0 mg/kg/injection, schedule: Q04DX003 (ip), vehicle: Klucel (hydroxypropylcellulose) (HPC)",241 % of control and 250 % of control
same,T/C,[1],233 % of control and 254 % of control and 260 % of control
same,T/C,"dose: 150.0 mg/kg/injection, schedule: Q01DX009 (ip), vehicle: Klucel (hydroxypropylcellulose) (HPC)",115 % of control
same,T/C,"dose: 150.0 mg/kg/injection, schedule: Q04DX003 (ip), vehicle: Klucel (hydroxypropylcellulose) (HPC)",175 % of control
same,T/C,[2],260 % of control and 272 % of control
same,T/C,[3],115 % of control
same,T/C,[4],234 % of control and 177 % of control
same,T/C,"dose: 600.0 mg/kg/injection, schedule: Q04DX003 (ip), vehicle: Klucel (hydroxypropylcellulose) (HPC)",272 % of control
CCOC(=O)C(Cc1ccc(N(CCCl)CCCl)cc1)NC=O (centres undefined),T/C,"dose: 66.0 mg/kg/injection, schedule: Q04DX003 (ip), vehicle: saline with Tween-80",181 % of control
same,T/C,[5],200 % of control and 209 % of control
same,T/C,"dose: 150.0 mg/kg/injection, schedule: Q04DX003 (ip), vehicle: saline with Tween-80",268 % of control and 272 % of control
same,T/C,"dose: 375.0 micrograms/kg/injection, schedule: Q04DX003 (ip), vehicle: saline with Tween-80",110 % of control
same,T/C,"dose: 750.0 micrograms/kg/injection, schedule: Q04DX003 (ip), vehicle: saline with Tween-80",120 % of control
C[C@]12CC[C@@H]3c4ccc(O)cc4CC[C@H]3[C@@H]1CC[C@@H]2O,T/C,"dose: 100.0 mg/kg/injection, schedule: Q01DX009 (ip), vehicle: Klucel (hydroxypropylcellulose) (HPC)",90 % of control
same,T/C,[1],100 % of control
same,T/C,[2],100 % of control
same,T/C,[3],95 % of control
same,T/C,[4],115 % of control
COC(=O)C1=C(C)NC(C)=C(C(=O)OC)C(N2C(=O)CCC2=O)C1 (centres undefined),T/C,"dose: 12.5 mg/kg/injection, schedule: Q01DX009 (ip), vehicle: saline with Tween-80",97 % of control
same,T/C,"dose: 25.0 mg/kg/injection, schedule: Q01DX009 (ip), vehicle: saline with Tween-80",94 % of control
same,T/C,[6],95 % of control and 123 % of control
same,T/C,[7],94 % of control and 107 % of control
same,T/C,[8],107 % of control
COc1ccccc1C(=O)C(O)c1ccccc1OC (centres undefined),T/C,[1],95 % of control
same,T/C,[2],104 % of control
same,T/C,[4],108 % of control
CC1(c2cccc(N)c2)OCCO1,T/C,[7],100 % of control
same,T/C,[5],90 % of control
same,T/C,[8],95 % of control
same,T/C,"dose: 200.0 mg/kg/injection, schedule: Q04DX003 (ip), vehicle: saline with Tween-80",109 % of control
same,T/C,"dose: 400.0 mg/kg/injection, schedule: Q01DX009 (ip), vehicle: saline with Tween-80",90 % of control
same,T/C,"dose: 400.0 mg/kg/injection, schedule: Q04DX003 (ip), vehicle: saline with Tween-80",109 % of control
COc1ccc2cc1Oc1ccc(cc1)C[C@H]1c3cc(c(OC)cc3CCN1C)Oc1c(OC)c(OC)cc3c1[C@H](C2)N(C)CC3,T/C,"dose: 12.5 mg/kg/injection, schedule: Q04DX003 (ip), vehicle: saline",105 % of control
same,T/C,[9],90 % of control
same,T/C,[10],110 % of control
same,T/C,[11],110 % of control
CCCOP(=O)(CCl)OCCC,T/C,[11],95 % of control
same,T/C,"dose: 200.0 mg/kg/injection, schedule: Q04DX003 (ip), vehicle: saline",100 % of control
same,T/C,"dose: 400.0 mg/kg/injection, schedule: Q04DX003 (ip), vehicle: saline",100 % of control
CCN(CC)CCOc1cc(C)ccc1C,T/C,"dose: 25.0 mg/kg/injection, schedule: Q01DX009 (ip), vehicle: saline",103 % of control
same,T/C,[9],109 % of control
same,T/C,"dose: 50.0 mg/kg/injection, schedule: Q01DX009 (ip), vehicle: saline",92 % of control
same,T/C,[10],100 % of control
same,T/C,"dose: 100.0 mg/kg/injection, schedule: Q01DX009 (ip), vehicle: saline",89 % of control
same,T/C,[11],90 % of control
CCCCOn1nnc2cc(Cl)ccc21,T/C,[6],97 % of control
same,T/C,[7],101 % of control
same,T/C,[8],117 % of control
